{"source": "paper PMC8305768", "about": "“Design, Synthesis and Antiparasitic Evaluation of Click Phospholipids” (Molecules, 2021)", "key": {"[1]": {"tested_on": "T. cruzi epimastigotes (Y strain)", "experiment": "Antiproliferative assay on T. cruzi epimastigotes", "assay_type": "cell-based", "conditions": "Trypanosoma cruzi", "experimental": "T. cruzi epimastigotes (Y strain) were obtained by axenic cultivation in the LIT medium, supplemented with 10% FBS (Cultilab, São Paulo, Brazil). Cultures were maintained at […] for 4–5 days until they reached the log growth phase. New cultures were made every 4 days from the initial inoculum of 2 × 10^6 parasites/mL. T. cruzi trypomastigotes (Y strain) were maintained in culture by the infection of LLC-MK2 (ATTC-CCL7) epithelial cells. This cell line was cultured in […] tissue culture bottles (TPP) in RPMI 1640 medium (Gibco), (Thermo Fischer Scientific, Carlsbad, CA, USA) supplemented with 10% FBS (Gibco) (Thermo Fischer Scientific, Carlsbad, CA, USA). Cultures were maintained at 37 °C under 5% CO2 atmosphere, and RPMI 1640 medium and SFB were exchanged every 48 h. After confluence, the cultures were treated with 1 mL of a mixture of trypsin and versene (Sigma, São Paulo, Brazil) (0.2 and 0.002%, respectively). After 24 h, a subconfluence culture was infected with the trypomastigotes in the approximate proportion of 10:1 parasites/cell. From five to seven days post infection, the trypomastigote stage was obtained from the culture supernatant. Alternatively (Figure 2), T. cruzi strain Y was maintained as previously described.\nThe trypomastigotes were obtained from the supernatant of a previously infected cell line (LLC-MK2). Between 5 and 7 days after infection, protozoa were collected from the supernatants of the infected LLC-MK2 cells and were then incubated with fresh RPMI 1640 medium supplemented with 0.5% FBS, with or without the compounds, for 24 h at 37 °C under a 5% CO2 atmosphere. […] The experiment was performed in duplicate for each of the three different experiments. For the antiproliferative assay involving epimastigotes, […] were cultivated in LIT medium supplemented with 10% FBS. After 24 h of epimastigote growth, different concentrations of 50 nM to 50 µM were added to the culture and incubated for 120 h at 28 °C. Cells were collected every 24 h for counting in a Neubauer chamber. Two controls were used and consisted of liver infusion broth-tryptose (LIT) supplemented with 10% FBS and LIT added with 0.01% DMSO. To investigate the effect of the compounds on intracellular amastigotes, peritoneal macrophages from Swiss mouse (CF1) plated in 96 wells plates (Costar®, Sigma, São Paulo, Brazil) were incubated for 2 h with T. cruzi trypomastigotes at a ratio of 10 parasites to 1 cell. The non-internalized parasites were removed by washing with the RPMI 1640 medium, and the host cells were incubated for 24 h at 37 °C to allow full internalization and differentiation of trypomastigotes to amastigotes. Fresh 10% FBS-RPMI 1640 medium with 1 µg/mL Hoescht 3348 and 1 µg/mL of WGA-FITC (control) or the same solution containing the inhibitors was added to the infected cells, which were then incubated for 96 h at 37 °C. Every 24 h samples were taken and analysed in high content equipment (InCell Analyser 2000, GE Healthcare, Chicago, IL, USA) with 20× air objective (NA 0.4) using respectively filters to excitation and emission to DAPI (405/455 nm), FITC (488/505 nm) and Cy3 (514/605 nm). Six images were collected for each well for reliable statistical analysis. […] The infection index (i.e., the percentage of infected host cells multiplied by the average number of intracellular amastigotes per infected host cell) was determined by counting a total of 500 host cells. Inhibitor activity was calculated using the SigmaPlot (version 10) program (Systat Software, Inc., San Jose, CA, USA). The results are expressed as the mean values from three independent experiments. The IC50 was calculated for promastigotes and intracellular amastigotes by fitting the values to a non-linear curve analysis. The regression analyses were performed with SigmaPlot 10 (version 10) program (Systat Software, Inc., San Jose, CA, USA)."}, "[2]": {"tested_on": "T. cruzi intracellular amastigotes (Y strain)", "experiment": "T. cruzi intracellular amastigotes in Swiss mouse peritoneal macrophages (high content imaging)", "assay_type": "cell-based", "conditions": "Trypanosoma cruzi, Peritoneal macrophage", "method": "The trypomastigotes were obtained from the supernatant of a previously infected cell line (LLC-MK2). Between 5 and 7 days after infection, protozoa were collected from the supernatants of the infected LLC-MK2 cells and were then incubated with fresh RPMI 1640 medium supplemented with 0.5% FBS, with or without the compounds, for 24 h at 37 °C under a 5% CO2 atmosphere. […] The experiment was performed in duplicate for each of the three different experiments. […] To investigate the effect of the compounds on intracellular amastigotes, peritoneal macrophages from Swiss mouse (CF1) plated in 96 wells plates (Costar®, Sigma, São Paulo, Brazil) were incubated for 2 h with T. cruzi trypomastigotes at a ratio of 10 parasites to 1 cell. The non-internalized parasites were removed by washing with the RPMI 1640 medium, and the host cells were incubated for 24 h at 37 °C to allow full internalization and differentiation of trypomastigotes to amastigotes. Fresh 10% FBS-RPMI 1640 medium with 1 µg/mL Hoescht 3348 and 1 µg/mL of WGA-FITC (control) or the same solution containing the inhibitors was added to the infected cells, which were then incubated for 96 h at 37 °C. Every 24 h samples were taken and analysed in high content equipment (InCell Analyser 2000, GE Healthcare, Chicago, IL, USA) with 20× air objective (NA 0.4) using respectively filters to excitation and emission to DAPI (405/455 nm), FITC (488/505 nm) and Cy3 (514/605 nm). Six images were collected for each well for reliable statistical analysis. […] The infection index (i.e., the percentage of infected host cells multiplied by the average number of intracellular amastigotes per infected host cell) was determined by counting a total of 500 host cells. Inhibitor activity was calculated using the SigmaPlot (version 10) program (Systat Software, Inc., San Jose, CA, USA). The results are expressed as the mean values from three independent experiments. The IC50 was calculated for promastigotes and intracellular amastigotes by fitting the values to a non-linear curve analysis. […]"}, "[3]": {"set-up": "method as in PMID 18472998, PMID 22573856", "conditions": "in humans ref 12,13; cited from earlier work"}, "[4]": {"tested_on": "T. b. brucei L427 WT bloodstream form", "experiment": "Activity against T. brucei bloodstream forms (resazurin-based assay)", "assay_type": "cell-based", "conditions": "Trypanosoma brucei; 10 μM, 72 h; read-out: Single Dose Assay 10μM Mean Inhibitory Activity (%) ± SD", "experimental": "Trypanosoma brucei brucei Lister 427 bloodstream forms were grown at 37 °C, 5% CO2 in complete HMI-9 medium supplemented with 10% foetal calf serum (FCS) and 100 UI/mL of penicillin/streptomycin. […] The efficacy of compounds against T. brucei bloodstream forms was evaluated using a modified resazurin-based assay previously described. Mid-log bloodstream forms were added to an equal volume of serial dilutions of compounds in supplemented complete HMI-9 medium at a final cell density of 5 × 10^3/mL. Following incubation for 72 h at 37 °C 5% CO2, 20 μL of a 0.5 mM resazurin solution was added and plates were incubated for a further 4 h under the same conditions. Fluorescence was measured at 540 nm and 620 nm excitation and emission wavelength, respectively, using a Synergy 2 Multi-Mode Reader (Biotek, Winooski, VT, USA)."}, "[5]": {"tested_on": "PMA-differentiated THP-1 cells", "experiment": "Cytotoxicity against THP-1 macrophages (MTT)", "assay_type": "cell-based", "conditions": "PMA-differentiated THP-1 macrophages, 72 h, read-out: Toxicity CC50 ± SD Or CC50 Interval Estimation", "experimental": "The effect of compounds selected compounds on THP-1-derived macrophages was assessed by the colorimetric MTT assay (3-(4,5-dimethylthiazol-2-yl)-2,5-diphenyl tetrazolium bromide). Briefly, 1 × 10^5 THP-1 cells/mL were differentiated into macrophages by addition of 20 ng/mL of phorbol-myristate 13-acetate (PMA, Sigma, Saint Louis, MI, USA) for 18 h, followed by replacement with fresh medium for 24 h. Cells were incubated with 100 µL of compounds ranging from 100 to 1 µM after dilution in the RPMI complete medium containing a maximum amount of 1% DMSO. After incubation for 72 h, the medium was removed and 100 µL of 0.5 mg/mL MTT solution diluted in RPMI was added. Plates were incubated for an additional 4 h to allow viable cells to convert MTT into a purple formazan product. Solubilization of formazan crystals was achieved by the addition of 2-propanol and absorbance was read at 570 nm using a Synergy 2 Multi-Mode Reader (Biotek, Winooski, VT, USA). Cytotoxicity was evaluated by the determination of the CC50 value (drug concentration that reduced the percentage of viable cells in 50%) and calculated by non-linear regression analysis using GraphPad Prism version 8.1.1 for Windows (GraphPad Software, San Diego, CA, USA)."}, "[6]": {"conditions": "epimastigotes, 24 h, read-out: IC50 24 h"}, "[7]": {"conditions": "epimastigotes, 48 h, read-out: IC50 48 h"}, "[8]": {"conditions": "epimastigotes, 72 h, read-out: IC50 72 h"}}, "note": "Counter-ions that a name gives are not always drawn. Like-named read-outs stand apart in the source and are kept apart here."}
{"smiles": "CCCCCCCCCCCCCCCCOP(=O)([O-])OCC[N+](C)(C)C", "note": "[Miltefosine, hexadecylphosphocholine, reference compound]", "values": [{"measurement": "IC50", "setting": "[1]; 24 h, read-out: IC50 24 h", "value": "18.4 ± 1.2", "unit": "µM"}, {"measurement": "IC50", "setting": "[1]; 48 h, read-out: IC50 48 h", "value": "9.5 ± 0.9", "unit": "µM"}, {"measurement": "IC50", "setting": "[1]; 72 h, read-out: IC50 72 h", "value": 8.34, "unit": "µM"}, {"measurement": "IC50", "setting": "[2]; 24 h, read-out: IC50 24 h", "value": "12.4 ± 0.6", "unit": "µM"}, {"measurement": "IC50", "setting": "[2]; 48 h, read-out: IC50 48 h", "value": "4.59 ± 0.1", "unit": "µM"}, {"measurement": "IC50", "setting": "[2]; 72 h, read-out: IC50 72 h", "value": "4.3 ± 0.12", "unit": "µM"}, {"measurement": "half-life", "setting": "[3]", "value": "100 to 200", "unit": "h"}]}
{"smiles": "C[N+](C)(C)CCCOP(=O)([O-])OCCCCCCCCCCCn1cc(CC2CCCCC2)nn1", "note": "[Compound 33, 11-(4-(cyclohexylmethyl)-1H-1,2,3-triazol-1-yl)undecyl (3-(trimethylammonio)propyl) phosphate inner salt]", "values": [{"measurement": "inhibition at 10 µM", "setting": "[4]", "value": "23 ± 3", "unit": "%"}]}
{"smiles": "C[N+](C)(C)CCOP(=O)([O-])OCCCCCCCCCCCn1cc(CC2CCCCC2)nn1", "note": "[Compound 29, 11-(4-(cyclohexylmethyl)-1H-1,2,3-triazol-1-yl)undecyl (2-(trimethylammonio)ethyl) phosphate inner salt]", "values": [{"measurement": "IC50", "setting": "[1]; [6]", "value": "> 10", "unit": "µM"}, {"measurement": "IC50", "setting": "[1]; [7]", "value": "> 10", "unit": "µM"}, {"measurement": "IC50", "setting": "[1]; [8]", "value": "> 10", "unit": "µM"}]}
{"smiles": "C[N+](C)(C)CCOP(=O)([O-])OCCCCCCCCCCCn1cc(CCCCCCCCNC(=O)OCc2ccccc2)nn1", "note": "[Compound 32, 11-(4-(8-(((benzyloxy)carbonyl)amino)octyl)-1H-1,2,3-triazol-1-yl)undecyl (2-(trimethylammonio)ethyl) phosphate inner salt]", "values": [{"measurement": "inhibition at 10 µM", "setting": "[4]", "value": "36 ± 4", "unit": "%"}]}
{"smiles": "C[N+](C)(C)CCOP(=O)([O-])OCCCCCn1cc(CCCCCCCCNC(=O)OCc2ccccc2)nn1", "note": "[Compound 31, 5-(4-(8-(((benzyloxy)carbonyl)amino)octyl)-1H-1,2,3-triazol-1-yl)pentyl (2-(trimethylammonio)ethyl) phosphate inner salt]", "values": [{"measurement": "inhibition at 10 µM", "setting": "[4]", "value": "20 ± 1", "unit": "%"}]}
{"smiles": "CCCCCCCCc1noc(CCCCCCCCCCOP(=O)([O-])OCC[N+](C)(C)C)n1", "note": "[Compound 54, 10-(3-octyl-1,2,4-oxadiazol-5-yl)decyl (2-(trimethylammonio)ethyl) phosphate inner salt]", "values": [{"measurement": "CC50", "setting": "[5]", "value": 10.8, "unit": "µM"}]}
{"smiles": "CCCCCc1cn(CCCCCCCCCCCOP(=O)([O-])OCC[N+](C)(C)C)nn1", "note": "[Compound 25, 11-(4-pentyl-1H-1,2,3-triazol-1-yl)undecyl (2-(trimethylammonio)ethyl) phosphate inner salt]", "values": [{"measurement": "IC50", "setting": "[1]; [6]", "value": 7.8, "unit": "µM"}, {"measurement": "IC50", "setting": "[1]; [7]", "value": 3.85, "unit": "µM"}, {"measurement": "IC50", "setting": "[1]; [8]", "value": 2.16, "unit": "µM"}]}
{"smiles": "C[N+](C)(C)CCOP(=O)([O-])OCCCCCCCCCCCn1cc(CC2CCCC2)nn1", "note": "[Compound 28, 11-(4-(cyclopentylmethyl)-1H-1,2,3-triazol-1-yl)undecyl (2-(trimethylammo nio)ethyl) phosphate inner salt]", "values": [{"measurement": "inhibition at 10 µM", "setting": "[4]", "value": "< 20", "unit": "%"}]}
